In the series the test system is cancer cells. Description: MTT cytotoxic assay of esterification products (Cytotoxicity activity). The format is cell-based, human. The source says: The peaks, fractions and compounds are selected according to the activities of times studies and the changes of peaks. Selecting the HPLC fractions for isolation is according to the cytotoxic activity of the reaction product obtained at a specific time. The compounds having strong to weak activities are selected and isolated. Selecting the HPLC fractions for isolation may be according to the cytotoxic activity of times studies and the change of peaks. The anti-cancer activities are the MTT studies of bone (U2OS), lung (H460), bladder (HTB-9), ovary (ES2), colon (HCT116), pancreas (Capan), ovary(OVCAR3), prostate (DU145), skin (SK-Mel-5), mouth (KB), kidney (A498), breast (MCF-7), liver (HepG2), brain (T98G), leukemia (K562), cervix (HeLa).
Esterification of compound (A), (B), (C), (D1), (D2), (E), (F), (G), (H1), (H2), E4A, E4A2Y, (P1), P(2), terpene, isoprene, triterpenes, hydroxylated triterpenes, with acyl halide, wherein the halide comprise chloride, bromide, fluoride and iodide, wherein the acyl halide comprise acyl chloride, wherein acyl chloride comprise tigloyl chloride, angeloyl chloride, acetyl chloride, crotonoyl chloride, 3,3-Dimethylacryloyl chloride, senecioyl chloride, cinnamoyl chloride, pentenoyl chloride, hexanoyl chloride, benzoyl chloride, ethylbutyryl chloride, propionyl chloride, 2-propenoyl chloride, isobutyryl chloride, butyryl chloride, (2E)-2-pentenoyl chloride, 4-Pentenoyl chloride, 5-hexenoyl chloride, heptanoyl chloride, octanoyl chloride, nonanoyl chloride, decanoyl chloride, Lauroyl chloride, myristoyl chloride, oleoyl chloride. The compounds vary in composition when the time or temperature of the reaction is changed. The peaks, fractions and compounds are selected according to the activities of times studies and the changes of peaks. The compounds having strong to weak activities are selected and isolated. The anti-cancer activities (Cytotoxic Assay) are the MTT studies of bone (U2OS), lung (H460), bladder(HTB-9), ovary (ES2), colon (HCT116), pancreas (Capan), ovary(OVCAR3), prostate (DU145), skin (SK-Mel-5), mouth (KB), kidney (A498), breast (MCF-7), liver (HepG2), brain (T98G), leukemia (K562), cervix (HeLa). The active esterification products are purified with HPLC. The reaction product of mixtures and individual compounds are tested with MTT Cytotoxic Assay. Details of method are in Experiment 3 of the present application. A second esterification of compound can be selected from the above experiment results to produce new active compounds. A partial esterification compound is selected from the above experiments to perform a second or repeated with a third esterification with different acyl chloride in order to produce new active compounds with the experiments in the present application.
Method: 40 mg of triterpene core (fraction IV) was dissolved in 1 ml pyridine in a 50 ml tube. Reaction is started by adding 0.2 ml of acyl chloride (Tigloyl chloride, angeloyl chloride, Acetyl chloride, Crotonoyl chloride, 3,3-Dimethylacryloyl chloride(senecioyl chloride), Cinnamoyl chloride, Pentenoyl chloride, Hexanoyl chloride, benzoyl chloride or Ethylbutyryl chloride). The mixture is stirred for 5 sec, 1 min, 2 min, 5 min, 10 min, 30 min, 1 hr, 2 hr, 18 hr, 2 days or 3 days at 0° C., 25° C. or 75° C. temperature. At the end of reaction, 5 ml of 2N HCl or 1 M NaHCO3 is added to the reaction mixture. The solution is then extracted 3 times with 10 ml of ethyl acetate which is then evaporated under vacuum and at 45C and lyophilization. The reaction product is dissolved in 80% acetonitrile - 0.005% Trifluoroacetic acid or DMSO; and was separated with HPLC. Selecting the HPLC fractions for isolation is according to the cytotoxic activity of the reaction product obtained at a specific reaction time. The active esterification products are purified with HPLC. The reaction product of mixtures and individual compounds are tested with MTT cytotoxic assay. Structures are determined with NMR. […]

Where [1] appears, read: MTT cytotoxic assay, isolated esterification products of E4A.
[2] abbreviates: E4A esterified with Crotonoyl chloride (Cro = Crotonoyl), compounds isolated with HPLC.
Setting [3] is: esterification products isolated with HPLC, graded strong / moderate / weak.
[4] abbreviates: E4A esterified with Cinnamoyl chloride (Cin = Cinnamoyl), compounds isolated with HPLC.

For the compound `CC(C)=CC(=O)OCC1(C)C(O)CCC2(C)C1CCC1(C)C2CC=C2C3CC(C)(C)C(O)C(OC(=O)C=C(C)C)C3(COC(=O)C=C(C)C)C(O)CC21C` (stereo not drawn) [Compound B5], the Cytotoxicity activity result under setting [1] is given as “moderate”.
`CC=CC(=O)OCC1(C)C(OC(=O)C=CC)CCC2(C)C1CCC1(C)C2CC=C2C3CC(C)(C)C(OC(=O)C=CC)C(O)C3(COC(=O)C=CC)C(OC(=O)C=CC)CC21C` (stereo not drawn) [Compound I17]: under setting [2], the Cytotoxicity activity result is listed as “weak”.
Still for that read-out and setting: for `CC=CC(=O)OCC1(C)C(OC(=O)C=CC)CCC2(C)C1CCC1(C)C2CC=C2C3CC(C)(C)C(O)C(OC(=O)C=CC)C3(COC(=O)C=CC)C(O)CC21C` (stereo not drawn) [Compound I14] the value was “weak”.
Consider `CC=C(C)C(=O)OCC1(C)C(O)CCC2(C)C1CCC1(C)C2CC=C2C3CC(C)(C)C(O)C(O)C3(COC(=O)C(C)=CC)C(O)CC21C` (stereo not drawn) [Tig—Ang—1], for which the Cytotoxicity activity entry under setting [3] is on record as “strong”.
In the case of `CC1(C)CC2C3=CCC4C5(C)CCC(OC(=O)C=Cc6ccccc6)C(C)(COC(=O)C=Cc6ccccc6)C5CCC4(C)C3(C)CC(OC(=O)C=Cc3ccccc3)C2(COC(=O)C=Cc2ccccc2)C(OC(=O)C=Cc2ccccc2)C1O` (stereo not drawn) [Compound J18], under setting [4], the Cytotoxicity activity entry is listed as “weak”.
`CC=CC(=O)OCC1(C)C(OC(=O)C=CC)CCC2(C)C1CCC1(C)C2CC=C2C3CC(C)(C)C(O)C(O)C3(COC(=O)C=CC)C(OC(=O)C=CC)CC21C` (stereo not drawn) [Compound I10]: the Cytotoxicity activity entry under setting [2] is “weak”.
Consider `CCC(CC)C(=O)OCC1(C)C(O)CCC2(C)C1CCC1(C)C2CC=C2C3CC(C)(C)C(O)C(O)C3(CO)C(OC(=O)C(CC)CC)CC21C` (stereo not drawn) [Compound E32], for which, under setting [1], the Cytotoxicity activity result is recorded as “moderate”.
Regarding `CC=CC(=O)OC1C(OC(=O)C=CC)C2(CO)C(O)CC3(C)C(=CCC4C5(C)CCC(O)C(C)(CO)C5CCC43C)C2CC1(C)C` (stereo not drawn) [Compound I24], the Cytotoxicity activity entry under setting [2] is “moderate”.
`CC=C(C)C(=O)OCC1(C)C(O)CCC2(C)C1CCC1(C)C2CC=C2C3CC(C)(C)C(O)C(O)C3(CO)C(OC(=O)C(C)=CC)CC21C` (stereo not drawn) [Compound A32]: the Cytotoxicity activity entry under setting [1] was “moderate”.
Turning to `CC=C(C)C(=O)OCC1(C)C(O)CCC2(C)C1CCC1(C)C2CC=C2C3CC(C)(C)C(O)C(OC(=O)C=C(C)C)C3(CO)C(O)CC21C` (stereo not drawn) [Tig—Sen—6], where the note is “esterification products of E4A—Tig—N with senecioyl chloride”, the Cytotoxicity activity result is “moderate”.
As to `CCC(CC)C(=O)OC1C(OC(=O)C(CC)CC)C2(CO)C(OC(=O)C(CC)CC)CC3(C)C(=CCC4C5(C)CCC(O)C(C)(CO)C5CCC43C)C2CC1(C)C` (stereo not drawn) [Compound E22], under setting [1], the Cytotoxicity activity result is listed as “moderate”.
The same measure, in the same setting: for `C=CCCC(=O)OC1C(OC(=O)CCC=C)C2(CO)C(O)CC3(C)C(=CCC4C5(C)CCC(OC(=O)CCC=C)C(C)(CO)C5CCC43C)C2CC1(C)C` (stereo not drawn) [Compound C23] the value was “moderate”.
On to `CC=CC(=O)OCC1(C)C(OC(=O)C=CC)CCC2(C)C1CCC1(C)C2CC=C2C3CC(C)(C)C(O)C(O)C3(CO)C(O)CC21C` (stereo not drawn) [Compound I31], for which the Cytotoxicity activity result under setting [2] is on record as “moderate”.
As to `CC1(C)CC2C3=CCC4C5(C)CCC(O)C(C)(COC(=O)C=Cc6ccccc6)C5CCC4(C)C3(C)CC(O)C2(COC(=O)C=Cc2ccccc2)C(OC(=O)C=Cc2ccccc2)C1OC(=O)C=Cc1ccccc1` (stereo not drawn) [Compound J8], the Cytotoxicity activity result under setting [4] is “weak”.
Still for that read-out and setting: for `CC1(C)CC2C3=CCC4C5(C)CCC(O)C(C)(COC(=O)C=Cc6ccccc6)C5CCC4(C)C3(C)CC(O)C2(COC(=O)C=Cc2ccccc2)C(O)C1OC(=O)C=Cc1ccccc1` (stereo not drawn) [Compound J4] the value was “moderate”.
In the case of `CCC(CC)C(=O)OC1C(OC(=O)C(CC)CC)C2(CO)C(O)CC3(C)C(=CCC4C5(C)CCC(OC(=O)C(CC)CC)C(C)(CO)C5CCC43C)C2CC1(C)C` (stereo not drawn) [Compound E23], the Cytotoxicity activity result under setting [1] was “moderate”.
With `CC=CC(=O)OCC12C(O)CC3(C)C(=CCC4C5(C)CCC(O)C(C)(COC(=O)C(C)=CC)C5CCC43C)C1CC(C)(C)C(OC(=O)C=CC)C2O` (stereo not drawn) [Tig—Cro—2], the Cytotoxicity activity result under setting [3] is “moderate”.
For `CCC(CC)C(=O)OCC1(C)C(OC(=O)C(CC)CC)CCC2(C)C1CCC1(C)C2CC=C2C3CC(C)(C)C(OC(=O)C(CC)CC)C(OC(=O)C(CC)CC)C3(COC(=O)C(CC)CC)C(OC(=O)C(CC)CC)CC21C` (stereo not drawn) [Compound E19], the Cytotoxicity activity entry under setting [1] was “none”.
Consider `CC1(C)CC2C3=CCC4C5(C)CCC(O)C(C)(COC(=O)C=Cc6ccccc6)C5CCC4(C)C3(C)CC(OC(=O)C=Cc3ccccc3)C2(COC(=O)C=Cc2ccccc2)C(OC(=O)C=Cc2ccccc2)C1O` (stereo not drawn) [Compound J12], for which, under setting [4], the Cytotoxicity activity entry is recorded as “weak”.
For `CC=C(C)C(=O)OCC1(C)C(O)CCC2(C)C1CCC1(C)C2CC=C2C3CC(C)(C)C(O)C(OC(=O)C(C)=CC)C3(COC(=O)C(C)=CC)C(O)CC21C` (stereo not drawn) [Compound A5], the Cytotoxicity activity entry under setting [1] was “moderate”.
On the same count and under the same terms, for `CCC(CC)C(=O)OCC1(C)C(O)CCC2(C)C1CCC1(C)C2CC=C2C3CC(C)(C)C(O)C(O)C3(COC(=O)C(CC)CC)C(OC(=O)C(CC)CC)CC21C` (stereo not drawn) [Compound E7] the value was “moderate”.
For `CC=C(C)C(=O)OCC1(C)C(O)CCC2(C)C1CCC1(C)C2CC=C2C3CC(C)(C)C(O)C(OC(=O)C(CC)CC)C3(COC(=O)C(CC)CC)C(O)CC21C` (stereo not drawn) [Tig—Eth—3], the Cytotoxicity activity entry under setting [3] was “moderate”.
`CC=C(C)C(=O)OCC1(C)C(O)CCC2(C)C1CCC1(C)C2CC=C2C3CC(C)(C)C(OC(=O)C(CC)CC)C(O)C3(COC(=O)C(C)=CC)C(O)CC21C` (stereo not drawn) [Tig—R—Eth—2]: the Cytotoxicity activity result under setting [3] is “moderate”.
For the compound `CC(C)=CC(=O)OC1C(OC(=O)C=C(C)C)C2(CO)C(O)CC3(C)C(=CCC4C5(C)CCC(OC(=O)C=C(C)C)C(C)(CO)C5CCC43C)C2CC1(C)C` (stereo not drawn) [Compound B23], under setting [1], the Cytotoxicity activity result is listed as “moderate”.
As for `CCC(CC)C(=O)OCC1(C)C(O)CCC2(C)C1CCC1(C)C2CC=C2C3CC(C)(C)C(OC(=O)C(CC)CC)C(O)C3(COC(=O)C(CC)CC)C(O)CC21C` (stereo not drawn) [Compound E4], under setting [1], the Cytotoxicity activity result is recorded as “moderate”.
The same measure, in the same setting: for `CCC(CC)C(=O)OCC1(C)C(O)CCC2(C)C1CCC1(C)C2CC=C2C3CC(C)(C)C(OC(=O)C(CC)CC)C(O)C3(COC(=O)C(CC)CC)C(OC(=O)C(CC)CC)CC21C` (stereo not drawn) [Compound E13] the value was “weak”.
The same measure, in the same setting: for `CC=C(C)C(=O)OCC1(C)C(O)CCC2(C)C1CCC1(C)C2CC=C2C3CC(C)(C)C(O)C(O)C3(CO)C(O)CC21C` (stereo not drawn) [Compound A1] the value was “moderate”.
For `CC1(C)CC2C3=CCC4C5(C)CCC(OC(=O)c6ccccc6)C(C)(CO)C5CCC4(C)C3(C)CC(O)C2(CO)C(OC(=O)c2ccccc2)C1OC(=O)c1ccccc1` (stereo not drawn) [Compound K23], the Cytotoxicity activity result was “moderate” (E4A esterified with 2-propenoyl chloride (Ppe = Propenoyl), compounds isolated with HPLC); “moderate” (E4A esterified with Propionyl chloride (Ppi = Propionyl), compounds isolated with HPLC); “moderate” (E4A esterified with benzoyl chloride (Ben = benzoyl), compounds isolated with HPLC); “moderate” (esterification products of core compound E4A with (2E)-2-pentenoyl chloride (2pe = 2-pentenoyl)); “moderate” (esterification products of core compound E4A with Butyryl chloride (But = Butyryl)); “moderate” (esterification products of core compound E4A with Decanoyl chloride (Dec = Decanoyl)). Moreover, the Cytotoxicity activity entry is “moderate” (esterification products of core compound E4A with Isobutyryl chloride (Iso = Isobutyryl)), “moderate” (esterification products of core compound E4A with Myristoyl chloride (Myr = Myristoyl)) and “moderate” (esterification products of core compound E4A with Octanoyl chloride (Oct = Octanoyl)).

Values taken from patent publication US20230340012A1, “NATURAL AND SYNTHETIC COMPOUNDS FOR TREATING CANCER AND OTHER DISEASES” (PACIFIC ARROW LIMITED, priority 2009, published 2023).
